Patent publication US9085587B2, “Inhibitors of hepatitis C virus” (priority 2010, dated 2015)
Read-outs that look alike come from different tables or passages of the source.

Tested on: HCV 1b replication (bicistronic genotype 1b replicon in Huh 7 cells)
Assay: HCV 1b replicon assay (1b_Huh-Luc/Neo-ET cell line, luciferase readout)
Type: cell-based
Settings: Hepatitis C virus
Method: Biological activity of the compounds of the invention was determined using an HCV replicon assay. The 1b_Huh-Luc/Neo-ET cell line persistently expressing a bicistronic genotype 1b replicon in Huh 7 cells was obtained from ReBLikon GMBH. This cell line was used to test compound inhibition using luciferase enzyme activity readout as a measurement of compound inhibition of replicon levels.
On Day 1 (the day after plating), each compound was added in triplicate to the cells. Plates were incubated for 72 hours prior to running the luciferase assay. Enzyme activity was measured using a Bright-Glo Kit (cat. number E2620) manufactured by Promega Corporation. The following equation was used to generate a percent control value for each compound. % Control=(Average Compound Value/Average Control)*100
The EC50 value was determined using GraphPad Prism and the following equation: Y=Bottom+(Top-Bottom)/(1+10^((Log IC50−X)*HillSlope))
EC50 values of compounds were repeated several times in the replicon assay.

[1] = Huh-7, 1b_Huh-Luc/Neo-ET cell line, 72 hours, luciferase readout, read-out: EC50, concentration effective to produce a half-maximal inhibition of HCV 1b replication
[2] = Huh-7, class symbols, genotype 1b replicon, read-out: Inhibition of HCV genotype 1b replicon
[3] = Huh-7, numeric EC50, genotype 1b replicon, read-out: Inhibition of HCV genotype 1b replicon (EC50)

Row | Compound | EC50 (Huh-7, read-out: Inhibition of HCV genotype 1b replicon) [nM] | EC50 [1] [nM] | EC50 [2] [nM] | EC50 [3] [nM]
1 | CNC(=O)c1c(-c2ccc(F)cc2)oc2cc3c(cc12)[C@H](C)O[C@H](COC(=O)C1CCNCC1)CN3S(C)(=O)=O [Compound 8265] | < 10 | ≤ 10 | – | –
2 | C=C1CCCN(S(C)(=O)=O)c2cc3oc(-c4ccc(F)cc4)c(C(=O)NC)c3cc21 [Compound B4] | – | 10 to 100 | 10 to 100 | –
3 | CNC(=O)c1c(-c2ccc(F)cc2)oc2cc3c(cc12)C(C)=CCCN3S(C)(=O)=O [Compound B6] | – | 10 to 100 | 10 to 100 | –
4 | CNC(=O)c1c(-c2ccc(F)cc2)oc2cc3c(cc12)C(=O)CCCN3S(C)(=O)=O [Compound B7] | – | 10 to 100 | 10 to 100 | –
5 | CNC(=O)c1c(-c2ccc(F)cc2)oc2cc3c(cc12)C(O)CCCN3S(C)(=O)=O (stereo not drawn) [Compound B8] | – | – | – | 106
6 | CNC(=O)c1c(-c2ccc(F)cc2)oc2cc3c(cc12)C1(CCCN3S(C)(=O)=O)CC1 [Compound B9] | – | 10 to 100 | 10 to 100 | –
7 | CNC(=O)c1c(-c2ccc(F)cc2)oc2cc3c(cc12)[C@@H](C)CCCN3S(C)(=O)=O [Compound B16] | – | 10 to 100 | – | 45.7
8 | CONC(=O)c1c(-c2ccc(F)cc2)oc2cc3c(cc12)CCCCN3S(C)(=O)=O [Compound B18] | – | 10 to 100 | 10 to 100 | –
9 | CNC(=O)c1c(-c2ccc(F)cc2)oc2cc3c(cc12)CCN3S(C)(=O)=O [Compound B21] | – | – | 100 to 1000 | –
10 | C=C1CCCN(S(C)(=O)=O)c2cc3oc(-c4ccc(F)cc4F)c(C(=O)NC)c3cc21 [Compound B29] | – | 10 to 100 | – | 56.1
11 | C=C1CCCN(S(C)(=O)=O)c2cc3oc(-c4ccccc4F)c(C(=O)NC)c3cc21 [Compound B31] | – | 10 to 100 | 10 to 100 | –
12 | CNC(=O)c1c(-c2ccccc2F)oc2cc3c(cc12)C(C)=CCCN3S(C)(=O)=O [Compound B32] | – | 10 to 100 | 10 to 100 | –
13 | CNC(=O)c1c(-c2ccccc2F)oc2cc3c(cc12)C(C)CCCN3S(C)(=O)=O (stereo not drawn) [Compound B33] | – | ≤ 10 | < 10 | –
14 | CNC(=O)c1c(-c2ccc(F)cc2F)oc2cc3c(cc12)C(C)=CCCN3S(C)(=O)=O [Compound B34] | – | 10 to 100 | 10 to 100 | –
15 | CNC(=O)c1c(-c2ccc(F)cc2F)oc2cc3c(cc12)C(C)CCCN3S(C)(=O)=O (stereo not drawn) [Compound B35] | – | ≤ 10 | < 10 | –
16 | CNC(=O)c1c(-c2ccc(F)cc2F)oc2cc3c(cc12)C(CO)CCCN3S(C)(=O)=O (stereo not drawn) [Compound B36] | – | 10 to 100 | 10 to 100 | –
17 | CNC(=O)c1c(-c2ccc(Oc3ccc(F)cc3)cc2)oc2cc3c(cc12)[C@H](C)O[C@H](COC)CN3S(C)(=O)=O [Compound B243] | – | ≤ 10 | < 10 | –
18 | CNC(=O)c1c(-c2ccc(Oc3ccc(F)cc3)cc2)oc2cc3c(cc12)[C@H](C)O[C@H](COC(=O)C(C)(C)C)CN3S(C)(=O)=O [Compound B244] | – | ≤ 10 | < 10 | –
19 | CNC(=O)c1c(-c2ccc(Oc3ccc(F)cc3)cc2)oc2cc3c(cc12)[C@H](C)O[C@H](COC(=O)CCC(=O)O)CN3S(C)(=O)=O [Compound B245] | – | ≤ 10 | < 10 | –
20 | CNC(=O)c1c(-c2ccc(Oc3ccc(F)cc3)cc2)oc2cc3c(cc12)[C@H](C)O[C@H](COC(=O)c1cccnc1)CN3S(C)(=O)=O [Compound B246] | – | ≤ 10 | < 10 | –
21 | CNC(=O)c1c(-c2ccc(F)cc2)nn2cc3c(cc12)C(C)OC(CS(C)(=O)=O)CN3S(C)(=O)=O (stereo not drawn) [Compound B247] | – | ≤ 10 | 10 to 100 | –

Row | Compound | EC50 (Huh-7, read-out: Inhibition of HCV genotype 1b replicon) [nM] | EC50 [1] [nM] | EC50 [2] [nM] | EC50 [3] [nM]
22 | CNC(=O)c1c(-c2ccc(F)cc2)oc2cc3c(cc12)[C@H](C)O[C@H](COC(=O)[C@@H](N)C(C)C)CN3S(C)(=O)=O [Compound B248] | – | ≤ 10 | < 10 | –
23 | CNC(=O)c1c(-c2ccc(F)cc2)oc2cc3c(cc12)[C@H](C)O[C@H](COC(=O)[C@H](C)N)CN3S(C)(=O)=O [Compound B249] | – | ≤ 10 | < 10 | –
24 | CNC(=O)c1c(-c2ccc(Oc3ccc(F)cc3)cc2)nn2cc3c(cc12)C(C)OC(CO)CN3S(C)(=O)=O (stereo not drawn) [Compound B250] | – | – | 10 to 100 | –
25 | CNC(=O)c1c(-c2ccc(Oc3ccc(F)cc3)cc2)nn2cc3c(cc12)C(C)OC(CS(C)(=O)=O)CN3S(C)(=O)=O (stereo not drawn) [Compound B251] | – | – | 10 to 100 | –
26 | CNC(=O)c1c(-c2ccc(F)cc2)oc2cc3c(cc12)[C@H](C)O[C@H](COC(=O)CN(C)C)CN3S(C)(=O)=O [Compound B252] | – | ≤ 10 | < 10 | –
27 | CNC(=O)c1c(-c2ccc(F)cc2)oc2cc3c(cc12)[C@H](C)O[C@H](COC(=O)CN)CN3S(C)(=O)=O [Compound B253] | – | ≤ 10 | < 10 | –
28 | CNC(=O)c1c(-c2ccc(Oc3ccc(F)cc3)cc2)oc2cc3c(cc12)[C@H](C)O[C@H](COC(=O)CN)CN3S(C)(=O)=O [Compound B254] | – | ≤ 10 | < 10 | –
29 | CNC(=O)c1c(-c2ccc(F)cc2)oc2cc3c(cc12)[C@H](C)O[C@H](COP(=O)(O)O)CN3S(C)(=O)=O [Compound B255] | – | ≤ 10 | < 10 | –
30 | CNC(=O)c1c(-c2ccc(F)cc2)oc2cc3c(cc12)[C@H](C)O[C@H](COC(=O)COCCOCCOC)CN3S(C)(=O)=O [Compound B256] | – | ≤ 10 | < 10 | –
31 | CONC(=O)c1c(-c2ccc(F)cc2)oc2cc3c(cc12)[C@H](C)O[C@H](CO)CN3S(C)(=O)=O [Compound B257] | – | ≤ 10 | < 10 | –
32 | CNC(=O)c1c(-c2ccc(F)cc2)oc2cc3c(cc12)[C@H](C)O[C@H](COC(=O)COCCOCCOCCOC)CN3S(C)(=O)=O [Compound B258] | – | ≤ 10 | < 10 | –
33 | CNC(=O)c1c(-c2ccc(F)cc2)oc2cc3c(cc12)[C@H](C)O[C@H](COC(=O)COCCOCCOCCOCCOC)CN3S(C)(=O)=O [Compound B259] | – | ≤ 10 | < 10 | –
34 | CNC(=O)c1c(-c2ccc(F)cc2)oc2cc3c(cc12)[C@H](C)O[C@H](COC)CN3S(C)(=O)=O [Compound B260] | – | ≤ 10 | < 10 | –
35 | CNC(=O)c1c(-c2ccc(F)cc2)oc2cc3c(cc12)[C@H](C)O[C@H](COC(=O)C(C)(C)C)CN3S(C)(=O)=O [Compound B261] | – | ≤ 10 | < 10 | –
36 | CNC(=O)c1c(-c2ccc(F)cc2)oc2cc3c(cc12)[C@H](C)O[C@H](COC(=O)CCC(=O)O)CN3S(C)(=O)=O [Compound B262] | – | 10 to 100 | 10 to 100 | –
37 | CNC(=O)c1c(-c2ccc(F)cc2)oc2cc3c(cc12)[C@H](C)O[C@H](COC(=O)c1cccnc1)CN3S(C)(=O)=O [Compound B263] | – | ≤ 10 | < 10 | –
38 | CNC(=O)c1c(-c2ccc(F)cc2)oc2cc3c(cc12)[C@H](C)O[C@H](COC(=O)CC1CCNCC1)CN3S(C)(=O)=O [Compound B264] | – | 10 to 100 | 10 to 100 | –
39 | CNC(=O)c1c(-c2ccc(F)cc2)oc2cc3c(cc12)[C@H](C)O[C@H](COC(=O)[C@@H]1CCCN1)CN3S(C)(=O)=O [Compound B266] | – | ≤ 10 | < 10 | –
40 | CNC(=O)c1c(-c2ccc(F)cc2)oc2cc3c(cc12)[C@H](C)O[C@H](COCCOC)CN3S(C)(=O)=O [Compound B267] | – | ≤ 10 | < 10 | –
41 | CNC(=O)c1c(-c2ccc(F)cc2)oc2cc3c(cc12)[C@H](C)O[C@H](COCCOCCOC)CN3S(C)(=O)=O [Compound B268] | – | ≤ 10 | < 10 | –
